Data: PubChem BioAssay AID2021 (NMMLSC, 2009)
Blank lines part the entries; values can stand above or below the compound they belong to. The source made the active and inactive calls. No rule for the calls is given here.

Target: Cell division control protein 42 homolog (Homo sapiens) (UniProt P60953)
Test: Cdc42 activated mutant GTP-binding inhibitors, SAR follow-up, biochemical, bead-based multiplex flow cytometry, additional SAR set (AID 2021)
Conditions: fluorescent GTP binding; for Ki: measured here: Ki derived from EC50

Cell division control protein 42 homolog (Homo sapiens), sequence (P60953 whole entry, looked up): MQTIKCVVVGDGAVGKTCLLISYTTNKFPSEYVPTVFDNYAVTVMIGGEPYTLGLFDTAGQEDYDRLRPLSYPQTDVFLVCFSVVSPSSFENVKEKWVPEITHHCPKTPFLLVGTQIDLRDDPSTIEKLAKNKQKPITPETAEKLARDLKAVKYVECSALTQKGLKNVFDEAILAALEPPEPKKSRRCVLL

SMILES: O=C1Nc2cccc(Br)c2/C1=C1/Cc2ccccc2C1=O
EC50: > 30 µM (inactive)

SMILES: O=Nc1c(-c2c(O)[nH]c3c(Br)cccc23)[nH]c2ccccc12
EC50: inactive | Ki: 8.52 µM

SMILES: COc1ccc(S(=O)(=O)n2c(N)c(C#N)c(-c3cc(Br)c(OC)c(OC)c3)c2C(=O)c2ccccc2)cc1
EC50: > 30 µM (inactive)

SMILES: COc1cc(-c2c(C#N)c(N)n(S(=O)(=O)c3c(C(C)C)cc(C(C)C)cc3C(C)C)c2C(=O)c2ccccc2)cc(OC)c1OC
EC50: > 30 µM (inactive)

SMILES: CSc1ccc(/C=C2/C(C)=C(CC(=O)O)c3cc(F)ccc32)cc1
EC50: inactive | Ki: 7.52 µM

SMILES: O=C(C#Cc1ccccc1)c1ccc(OC(F)(F)F)cc1
EC50: > 30 µM (inactive)

SMILES: O=Nc1c(-c2c(O)[nH]c3c(Cl)cccc23)[nH]c2ccccc12
EC50: > 30 µM (inactive)

SMILES: O=Nc1c(-c2c(O)[nH]c3ccccc23)[nH]c2ccccc12
EC50: > 30 µM (inactive)

SMILES: COc1ccc(S(=O)(=O)n2c(N)c(C#N)c(-c3ccccc3)c2C(=O)c2ccc(Br)cc2)cc1
EC50: > 30 µM (inactive)

SMILES: CCCCS(=O)(=O)n1c(N)c(C#N)c(-c2cc(OC)c(OC)c(OC)c2)c1C(=O)c1ccccc1
EC50: inactive | Ki: 2.88 µM

SMILES: N#Cc1c(-c2ccc(Cl)cc2)c(C(=O)c2ccccc2)n(S(=O)(=O)c2ccc([N+](=O)[O-])cc2)c1N
EC50: inactive | Ki: 0.93 µM

SMILES: O=C1Nc2c(Br)cccc2/C1=C1/Cc2ccccc2C1=O
EC50: > 30 µM (inactive)

SMILES: O=Nc1c(-c2c(O)[nH]c3ccc(Br)cc23)[nH]c2ccccc12
EC50: > 30 µM (inactive)

SMILES: O=C1C(c2c(O)[nH]c3ccc(Br)cc23)=Nc2ccccc21
EC50: > 30 µM (inactive)

SMILES: O=C1Nc2ccccc2/C1=C1/Cc2ccccc2C1=O
EC50: > 30 µM (inactive)

SMILES: O=C1C(c2c(O)[nH]c3c(F)cccc23)=Nc2ccccc21
EC50: > 30 µM (inactive)

SMILES: CC(C)Cc1ccc([C@H](C)C(=O)O)cc1
EC50: inactive | Ki: 0.99 µM

SMILES: COc1ccc(S(=O)(=O)n2c(N)c(C#N)c(-c3cncc(Br)c3)c2C(=O)c2ccccc2)cc1
EC50: 9.98 µM | Ki: 1.54 µM

SMILES: O=C1C(c2c(O)[nH]c3c(Br)cccc23)=Nc2ccccc21
EC50: > 30 µM (inactive)

SMILES: N#Cc1ccc(C(=O)C#Cc2ccccc2)cc1
EC50: > 30 µM (inactive)

SMILES: COc1ccc(-c2c(C#N)c(N)n(S(C)(=O)=O)c2C(=O)c2ccccc2)cc1Br
EC50: inactive | Ki: 2.87 µM

SMILES: O=C1C(c2c(O)[nH]c3ccccc23)=Nc2ccccc21
EC50: > 30 µM (inactive)

SMILES: O=[N+]([O-])c1ccc(C#Cc2ccccc2)cc1
EC50: 13.7 µM | Ki: 2.12 µM

SMILES: O=C1C(c2c(O)[nH]c3c(Cl)cccc23)=Nc2ccccc21
EC50: > 30 µM (inactive)

SMILES: O=Nc1c(-c2c(O)[nH]c3c(F)cccc23)[nH]c2ccccc12
EC50: > 30 µM (inactive)

SMILES: CC1=C(CC(=O)O)c2cc(F)ccc2/C1=C/c1ccc(S(C)=O)cc1 (stereo not given)
EC50: > 30 µM (inactive)

More lines, now with the values ahead:

EC50: inactive | Ki: 9.15 µM
SMILES: O=C(C#Cc1ccccc1)c1ccc(F)cc1

EC50: > 30 µM (inactive)
SMILES: O=C(C#Cc1ccccc1)c1cccnc1

EC50: > 30 µM (inactive)
SMILES: CC(=O)Oc1ccccc1C(=O)O

EC50: > 30 µM (inactive)
SMILES: O=C1N=c2ccccc2=C1c1[nH]c(=S)[nH]c1O

EC50: > 30 µM (inactive)
SMILES: O=C(C#Cc1ccccc1)c1ccccc1[N+](=O)[O-]

EC50: > 30 µM (inactive)
SMILES: CC(C(=O)O)c1cccc(Oc2ccccc2)c1 (stereo not given)

EC50: > 30 µM (inactive)
SMILES: CC(C(=O)O)c1cccc(C(=O)c2ccccc2)c1 (stereo not given)

EC50: > 30 µM (inactive)
SMILES: O=C(C#Cc1ccccc1)c1ccc(Cl)cc1

EC50: > 30 µM (inactive)
SMILES: O=C(C#Cc1ccccc1)c1ccccc1

EC50: > 30 µM (inactive)
SMILES: COC(=O)c1ccc(C(=O)C#Cc2ccccc2)cc1

EC50: inactive | Ki: 0.81 µM
SMILES: O=C1N=c2ccccc2=C1c1[nH]c(=O)[nH]c1O

EC50: > 30 µM (inactive)
SMILES: COc1ccc(C(=O)C#Cc2ccccc2)cc1

EC50: > 30 µM (inactive)
SMILES: O=C(C#Cc1ccccc1)c1ccc([N+](=O)[O-])cc1

EC50: > 30 µM (inactive)
SMILES: COc1ccc2cc(CC(=O)O)ccc2c1
